Our source for the IC50 values is ChEMBL document CHEMBL1135444, “Elucidating the inhibiting mode of AHPBA derivatives against HIV-1 protease and building predictive 3D-QSAR models” (J Med Chem, 2002).

pIC50: −log10 of the molar value.

This experiment concerns the target Human immunodeficiency virus type 1 protease (Human immunodeficiency virus 1, UniProt Q72874). Briefly: Inhibitory activity against HIV-1 protease.
Take `Cc1cc(O)c(C)c(C(=O)N[C@@H](Cc2ccccc2)[C@H](O)C(=O)N2C[C@@H](Cl)C[C@H]2C(=O)NC(C)(C)C)c1`: the pIC50 (as a rule, the IC50 on a negative log10 scale, so that one unit is a factor of ten) is 8.89. Then `COc1cccc(C(=O)N[C@@H](Cc2ccccc2)[C@H](O)C(=O)N2C[C@@H](Cl)C[C@H]2C(=O)NC(C)(C)C)c1O`, with 6.00; and `Cc1c(O)cccc1C(=O)N[C@@H](Cc1ccccc1)[C@H](O)C(=O)N1C[C@@H](Cl)C[C@H]1C(=O)NC(C)(C)C`, with 9.10.

Consider `CC(C)(C)NC(=O)[C@@H]1C[C@H](Cl)CN1C(=O)[C@@H](O)[C@H](Cc1ccccc1)NC(=O)c1cccc(O)c1Br`, for which the negative logarithm of the IC50 (pIC50) is 8.82. Compared with the last molecule, the pIC50 is 0.28 log units lower. Then `Cc1cc(O)c(C)c(C(=O)N[C@@H](Cc2cc(F)cc(F)c2)[C@H](O)C(=O)N2C[C@@H](Cl)C[C@H]2C(=O)NC(C)(C)C)c1`, with 8.92. As to `Cc1c(O)cc(F)cc1C(=O)N[C@@H](Cc1cccc(C(F)(F)F)c1)[C@H](O)C(=O)N1C[C@@H](Cl)C[C@H]1C(=O)NC(C)(C)C`, the pIC50 was 8.68.

The molecule `Cc1ccc(C(=O)N[C@@H](Cc2cccc(C(F)(F)F)c2)[C@H](O)C(=O)N2C[C@@H](Cl)C[C@H]2C(=O)NC(C)(C)C)c(C)c1O` had a pIC50 of 8.46. Then `Cc1ccc(O)c(C)c1C(=O)N[C@@H](Cc1ccc(C(F)(F)F)cc1)[C@H](O)C(=O)N1C[C@@H](Cl)C[C@H]1C(=O)NC(C)(C)C`, with 8.41. Then `Cc1ccc(O)c(C)c1C(=O)N[C@@H](Cc1ccccc1)[C@H](O)C(=O)N1C[C@@H](Cl)C[C@H]1C(=O)NC(C)(C)C`, with 8.60. In the case of `Cc1cc(O)c(C)c(C(=O)N[C@@H](Cc2ccc3ccccc3c2)[C@H](O)C(=O)N2C[C@@H](Cl)C[C@H]2C(=O)NC(C)(C)C)c1`, the negative-log IC50 (pIC50) is 9.10. Against the preceding molecule, the pIC50 is 0.50 log units higher. Then `Cc1ccc(C[C@H](NC(=O)c2ccc(C)c(O)c2C)[C@H](O)C(=O)N2C[C@@H](Cl)C[C@H]2C(=O)NC(C)(C)C)cc1`, with 8.07. Turning to `Cc1cc(O)c(C)c(C(=O)N[C@@H](Cc2cccc(C(F)(F)F)c2)[C@H](O)C(=O)N2C[C@@H](Cl)C[C@H]2C(=O)NC(C)(C)C)c1`, the pIC50 was 8.72. Then `CC(C)(C)NC(=O)[C@@H]1C[C@H](Cl)CN1C(=O)[C@@H](O)[C@H](Cc1ccccc1)NC(=O)c1ccccc1O`, with 6.00; and `Cc1ccc(C(=O)N[C@@H](Cc2ccc3ccccc3c2)[C@H](O)C(=O)N2C[C@@H](Cl)C[C@H]2C(=O)NC(C)(C)C)c(C)c1O`, with 8.49.

`Cc1cccc(C[C@H](NC(=O)c2ccc(C)c(O)c2C)[C@H](O)C(=O)N2C[C@@H](Cl)C[C@H]2C(=O)NC(C)(C)C)c1` showed a pIC50 of 8.60. As for `Cc1ccc(C(=O)N[C@@H](Cc2ccc(C(F)(F)F)cc2)[C@H](O)C(=O)N2C[C@@H](Cl)C[C@H]2C(=O)NC(C)(C)C)c(C)c1O`, the pIC50 was 8.20. Then `CC(C)(C)NC(=O)[C@@H]1C[C@H](Cl)CN1C(=O)[C@@H](O)[C@H](Cc1ccccc1)NC(=O)c1ccccc1Cl`, with 7.96. `Cc1ccccc1C[C@H](NC(=O)c1ccc(C)c(O)c1C)[C@H](O)C(=O)N1C[C@@H](Cl)C[C@H]1C(=O)NC(C)(C)C` had a pIC50 of 7.30. `Cc1cccc(C)c1C(=O)N[C@@H](Cc1ccccc1)[C@H](O)C(=O)N1C[C@@H](Cl)C[C@H]1C(=O)NC(C)(C)C` showed a pIC50 of 8.44. Consider `CC(C)(C)NC(=O)[C@@H]1C[C@H](Cl)CN1C(=O)[C@@H](O)[C@H](Cc1ccccc1)NC(=O)c1ccccc1`, for which the pIC50 was 7.59. Against the preceding molecule, the pIC50 is 0.85 log units lower. `Cc1ccc(C(=O)N[C@@H](Cc2ccccc2)[C@H](O)C(=O)N2C[C@@H](Cl)C[C@H]2C(=O)NC(C)(C)C)c(C)c1O` showed a negative logarithm of the IC50 (pIC50) of 8.09.

As to `Cc1ccc(O)c(C)c1C(=O)N[C@@H](Cc1ccc2ccccc2c1)[C@H](O)C(=O)N1C[C@@H](Cl)C[C@H]1C(=O)NC(C)(C)C`, the negative-log IC50 (pIC50) was 8.55. This pIC50 lies 0.46 log units higher than the previous one. Then `CC(C)(C)NC(=O)[C@@H]1C[C@H](Cl)CN1C(=O)[C@@H](O)[C@H](Cc1ccccc1)NC(=O)c1ccc(O)cc1`, with 7.48; and `CC(C)(C)NC(=O)[C@@H]1C[C@H](Cl)CN1C(=O)[C@@H](O)[C@H](Cc1ccccc1)NC(=O)c1ccccc1N`, with 7.41. Then `Cc1c(N)cccc1C(=O)N[C@@H](Cc1ccccc1)[C@H](O)C(=O)N1C[C@@H](Cl)C[C@H]1C(=O)NC(C)(C)C`, with 8.27; and `Cc1ccc(C[C@H](NC(=O)c2c(C)ccc(O)c2C)[C@H](O)C(=O)N2C[C@@H](Cl)C[C@H]2C(=O)NC(C)(C)C)cc1`, with 8.44.

In the case of `Cc1c(O)cc(F)cc1C(=O)N[C@@H](Cc1ccccc1)[C@H](O)C(=O)N1C[C@@H](Cl)C[C@H]1C(=O)NC(C)(C)C`, the negative logarithm of the IC50 (pIC50) is 8.77.

Take `Cc1ccc(O)c(C)c1C(=O)N[C@@H](Cc1cccc(C(F)(F)F)c1)[C@H](O)C(=O)N1C[C@@H](Cl)C[C@H]1C(=O)NC(C)(C)C`: the pIC50 is 8.34.

In turn, `CC(C)(C)NC(=O)[C@@H]1C[C@H](Cl)CN1C(=O)[C@@H](O)[C@H](Cc1ccccc1)NC(=O)c1ccccc1Br` had a pIC50 of 7.92. As for `CC(C)(C)NC(=O)[C@@H]1C[C@H](Cl)CN1C(=O)[C@@H](O)[C@H](Cc1ccccc1)NC(=O)c1cccc(O)c1`, the pIC50 was 8.05. This pIC50 and that of the molecule before are within 0.2 log units of each other. Then `Cc1cccc(C[C@H](NC(=O)c2c(C)ccc(O)c2C)[C@H](O)C(=O)N2C[C@@H](Cl)C[C@H]2C(=O)NC(C)(C)C)c1`, with 8.47. Then `Cc1cccc(C[C@H](NC(=O)c2cc(C)cc(O)c2C)[C@H](O)C(=O)N2C[C@@H](Cl)C[C@H]2C(=O)NC(C)(C)C)c1`, with 8.89; and `Cc1ccccc1C[C@H](NC(=O)c1c(C)ccc(O)c1C)[C@H](O)C(=O)N1C[C@@H](Cl)C[C@H]1C(=O)NC(C)(C)C`, with 7.46. Then `CC(C)(C)NC(=O)[C@@H]1C[C@H](Cl)CN1C(=O)[C@@H](O)[C@H](Cc1ccccc1)NC(=O)c1ccccc1I`, with 7.85; and `Cc1c(O)cc(F)cc1C(=O)N[C@@H](Cc1ccc2ccccc2c1)[C@H](O)C(=O)N1C[C@@H](Cl)C[C@H]1C(=O)NC(C)(C)C`, with 8.92; and `Cc1cc(O)c(C)c(C(=O)N[C@@H](Cc2ccc(-c3ccccc3)cc2)[C@H](O)C(=O)N2C[C@@H](Cl)C[C@H]2C(=O)NC(C)(C)C)c1`, with 8.89.
